Patent US20240279202A1 (NURIX THERAPEUTICS, INC., priority 2021, published 2024)

Columns and labels:
[1] = target: T1, ITK (Mus musculus, UniProt Q03526); test: Mouse PD assay for ITK degradation (Western blot, splenocytes after oral administration); format: in vivo; details: percent ITK remaining in mouse splenocytes relative to vehicle, 90 mpk PO, 6 h
T1 construct: mice were sacrificed and splenocytes were isolated and used to prepare protein lysates; from tissue; host or cells: mouse splenocytes (spleen) after oral dosing
T1 sequence (Q03526 1-625): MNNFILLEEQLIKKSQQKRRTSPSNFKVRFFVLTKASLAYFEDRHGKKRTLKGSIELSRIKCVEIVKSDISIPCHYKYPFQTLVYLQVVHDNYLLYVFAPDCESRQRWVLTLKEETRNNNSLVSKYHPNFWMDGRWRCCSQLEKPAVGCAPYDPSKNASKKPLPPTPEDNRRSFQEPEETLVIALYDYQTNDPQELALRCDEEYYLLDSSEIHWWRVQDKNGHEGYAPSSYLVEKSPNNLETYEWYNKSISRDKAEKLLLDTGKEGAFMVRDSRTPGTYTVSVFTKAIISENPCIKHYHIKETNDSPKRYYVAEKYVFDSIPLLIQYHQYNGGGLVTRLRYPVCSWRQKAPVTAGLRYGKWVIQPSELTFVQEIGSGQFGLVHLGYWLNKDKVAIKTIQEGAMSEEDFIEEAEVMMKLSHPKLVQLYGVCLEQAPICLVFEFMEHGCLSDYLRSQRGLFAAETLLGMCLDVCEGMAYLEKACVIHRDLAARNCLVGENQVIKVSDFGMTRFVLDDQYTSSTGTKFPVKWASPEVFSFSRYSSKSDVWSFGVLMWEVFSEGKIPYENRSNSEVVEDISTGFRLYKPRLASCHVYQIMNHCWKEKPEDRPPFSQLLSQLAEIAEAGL
Protocol: (§1) Compounds 1, 3, 7, and 42 were formulated and administered at 90 mg/kg to mice by oral gavage (PO). Blood was collected at defined time points (after 1, 2, and 6 hours) after compounds administration to determine PK parameters. Concentration increased through 6 hours. Six hours later mice were sacrificed and splenocytes were isolated and used to prepare protein lysates. Total protein levels were determined in the lysates using the BCA assay according to standard methods. Equal amounts of protein were then analyzed by Western blot to determine the level of ITK expression in each sample. ITK band intensities were measured using Alpha View software and the percent of ITK remaining in each test animal was determined relative to the mean of ITK levels in vehicle control samples.
After 6 hours, splenocytes cells were harvested. ITK was evaluated by Western blotting.
Compounds 43, 4, 5, 10, 11, 12, 44, 14, 3, and 13 were administered to mice orally. After 6 hours, splenocytes cells were harvested. ITK was evaluated by Western blotting. Media was removed and cell pellets were lysed in 100 uL lysis buffer (RIPA buffer (Fisher, PI89901), cOmplete Mini EDTA-free protease inhibitor (Sigma 11836170001), Protease Inhibitor Cocktail (Sigma, P2714), Phosphatase Inhibitor Cocktail 2 and 3 (Sigma, P5726 and P0044), Benzonase (Sigma, E1014)). Cells were lysed overnight at −20° C. Following thaw, cells were centrifuged for 10 min at 13000 rpm, then transferred to new tube. Protein levels were determined by BCA Assay performed according to manufacturer's protocol (EMID Millipore, cat. no. 71285-3). Samples were combined with (4×) LDS Sample Buffer and (10×) Reducing Agent and H2O to equally load 20 ug protein per lane of a 26-well NuPAGE 4-12% Bis-Tris protein gel (1.0 mm, Thermo cat. no. NP0326). Samples were separated by running gels at constant 150 V in NuPAGE MES SDS Running Buffer. Following electrophoresis, proteins were transferred to nitrocellulose membranes using an iBlot Gel Transfer Device and iBlot Gel Transfer Stacks (Thermo cat. no. IB21001 and IB301001) and transfer method P3 (20V for 7 min). Membranes were blocked for 1 hr in 5% milk solution (TBS (0.2% Tween-20)). Following blocking, membranes were incubated with primary antibody (1:1000 CST ITK (2F12) #2380) overnight at 4° C. with gentle shaking. Blots were washed 2× in TBS (0.2% Tween-20), 30 min per wash. Following washes, blots were incubated in secondary HRP-conjugated antibody (Promega anti-Mouse IgG (H+L) HRP cat. no. W4021), 1:5000 in 5% milk solution (TBS (0.2% Tween-20)), for 1 hr at room temperature with gentle shaking. Blots were washed 2× in TBS (0.2% Tween-20), 30 min per wash. Blots were incubated with 1:1 mix of ECL reagents 1 & 2 (Amersham ECL Western Blotting Detection Reagent, cat. no. RPN2106) for 2 min at room temperature. Bands were visualized using a Protein Simple imager. Blots were then re-probed with a combination of anti-actin antibody (Sigma Monoclonal Mouse Anti-3-Actin (clone AC-15), cat. no. A5441) and secondary H1RP-conjugated antibody (Promega anti-Mouse IgG (H+L) HRP, cat. no. W4021) and similar steps were taken for incubation, wash, detection and visualization steps as above. The data was analyzed using Alpha View software. The densitometric reading for each sample band was normalized to that of the corresponding actin band per lane. Approximate % ITK remaining per sample was calculated as follows: […]
Once % ITK remaining has been calculated for each sample, groups are averaged together to show an means % ITK normalized to actin and relative to control.
Compounds 16, 17, and 18 were administered to mice orally. After 6 hours or 24 hours, splenocytes cells were harvested. ITK was evaluated by Western blotting. Plasma concentrations were determined by LC/MS/MS. Plasma samples were protein precipitated by addition of 100 μl of acetonitrile containing 50 ng/ml of internal standard. The resulting mixture was vortexed and centrifuged at 4000 RPM for 5 minutes. […]

[2] = Mouse PK analysis (blood/plasma concentration after oral administration); format: in vivo; details: mouse; mice, oral, plasma
Protocol: as §1
Compounds 16, 17, and 18 were administered to mice orally. After 6 hours or 24 hours, splenocytes cells were harvested. ITK was evaluated by Western blotting. Plasma concentrations were determined by LC/MS/MS. Plasma samples were protein precipitated by addition of 100 μl of acetonitrile containing 50 ng/ml of internal standard. The resulting mixture was vortexed and centrifuged at 4000 RPM for 5 minutes. An aliquot of the resultant supernatant (75 μl) was added to 75 μl of 0.1% formic acid in water to constitute the final sample for injection. Samples were injected on a Shimadzu Exion LC Binary Gradient AD Pump HLPC system connected to a Sciex QTRAP 6500+mass spectrometer. Five μl of sample was injected onto a Waters Acquity UPLC BEH C18 column 130A (2.1×30 mm, […]) at 40° C. utilizing a flow rate of 700 μl/minute. Mobile Phase A was 0.1% formic acid in water and mobile phase B was 0.1% formic acid in acetonitrile. A linear gradient of 15-95% B over 1.0 minute was used. The mass spectrometer was operated in positive ion electrospray mode with multiple reaction monitoring for maximum sensitivity. Sciex Analyst software (version 1.6.3) was used for LC/MS/MS instrument control and acquisition. Compound concentration was determined against a standard curve of internal standard versus compound peak area ratio. Noncompartmental PK parameters were determined using […] software (version 8.2.0.4383) from Certara. Plasma concentrations from the LC/MS/MS analyses, dose, route of administration, and desired units were utilized for PK parameter calculations. […] FIG. 4C provides the concentration over time of compound 17 following in vivo oral administration in the 6 hour and 24 hour assays.
Cmax, Tmax and AUClast were all calculated using a WinNonLin Phoenix 64 v 8.2.0.4383. Using non-compartmental analysis, Tmax, Cmax and AUClast were determined as follows: • Tmax—Time of maximum observed concentration. • Cmax—Maximum observed concentration, occurring at time Tmax, as defined above. • AUClast—Area under the curve from the time of dosing to the time of the last measurable (positive) concentration (Tlast).

[3] = target: T2, ITK (Homo sapiens, UniProt Q08881); test: ITK degradation HiBiT assay; format: cell-based; design: expressed in transfected cells; host or cells: Molt4 (ATCC CRL-1552), monoclonal clone 1C10, engineered to carry the HiBiT tag; details: 4 hrs; for Dmax: MOLT-4, C-terminal HiBiT-tagged Molt4 cells
T2 sequence (Q08881 1-620): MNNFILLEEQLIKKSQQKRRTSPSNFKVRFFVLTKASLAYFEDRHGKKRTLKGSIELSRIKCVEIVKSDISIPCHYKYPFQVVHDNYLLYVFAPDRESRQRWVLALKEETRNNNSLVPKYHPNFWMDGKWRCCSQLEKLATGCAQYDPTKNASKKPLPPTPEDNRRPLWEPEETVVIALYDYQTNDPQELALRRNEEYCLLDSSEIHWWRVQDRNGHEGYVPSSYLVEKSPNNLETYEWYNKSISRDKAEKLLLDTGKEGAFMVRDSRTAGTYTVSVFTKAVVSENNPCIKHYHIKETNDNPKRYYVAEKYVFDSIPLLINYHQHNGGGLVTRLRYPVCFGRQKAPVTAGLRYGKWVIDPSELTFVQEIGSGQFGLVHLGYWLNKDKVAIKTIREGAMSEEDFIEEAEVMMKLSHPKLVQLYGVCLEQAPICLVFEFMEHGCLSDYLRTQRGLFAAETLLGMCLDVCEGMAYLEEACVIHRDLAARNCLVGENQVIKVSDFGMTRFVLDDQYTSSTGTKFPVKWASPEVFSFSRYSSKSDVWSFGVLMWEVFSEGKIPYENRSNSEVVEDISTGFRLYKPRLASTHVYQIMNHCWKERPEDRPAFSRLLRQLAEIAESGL
Summary of the method: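 C-terminal HiBiT-tagged Molt4 cells (clone 1C10) treated 4 h at 32° C with an 11-point, 5-fold compound dilution series (0.5% DMSO). HiBiT lytic detection with LgBiT then luminescence read; % ITK remaining versus concentration fit by four-parameter variable-slope model to give DC50 and Dmax.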

ITK (%) 90 mpk PO, 6 h [1] [%] | AUC(0-t) [2] [µM·h] | Cmax [2] [nM] | Tmax [2] [h] | DC50 ([3]; C-terminal HiBiT-tagged Molt4 cells) [nM] | Dmax [3] [%] | SMILES
66 | – | – | – | – | – | CN(C(=O)CC1CCN(c2ccc(C3CCC(=O)NC3=O)cn2)CC1)c1ccc2cc(-c3n[nH]c4c3C[C@@H]3C(F)(F)[C@]3(C)C4)[nH]c2c1 (stereo partly shown) [Compound 20]
– | 2.34 | 720 | 6 | – | – | C[C@@]12Cc3[nH]nc(C(=O)Nc4cnn([C@H](c5ccccc5)C5CN(C(=O)C6CN(c7ccc(C8CCC(=O)NC8=O)cn7)C6)C5)c4)c3C[C@@H]1C2(F)F (stereo partly drawn) [Compound 51, (4aS,5aR)-N-(1-((1S)-(1-(1-(5-(2,6-dioxopiperidin-3-yl)pyridin-2-yl)azetidine-3-carbonyl)azetidin-3-yl)(phenyl)methyl)-1H-pyrazol-4-yl)-5,5-difluoro-5a-methyl-1,4,4a,5,5a,6-hexahydrocyclopropa[f]indazole-3-carboxamide]
– | 0.18 | 61 | 1.5 | 13.4 | 69 | CC1(C)CCc2c(-c3cc4ccc(C(=O)N5CCC(C6CCN(c7ccc(C8CCC(=O)NC8=O)cn7)CC6)CC5)cc4[nH]3)n[nH]c2C1 (stereo not shown) [Compound 58, 3-(6-(1′-(2-(6,6-dimethyl-4,5,6,7-tetrahydro-1H-indazol-3-yl)-1H-indole-6-carbonyl)-[4,4′-bipiperidin]-1-yl)pyridin-3-yl)piperidine-2,6-dione]
– | 0.08 | 23 | 1.5 | – | 83 | CC1(C)CCc2c(-c3cc4ccc(C(=O)N5CCC(CN6CCC7(C6)CN(c6ccc(C8CCC(=O)NC8=O)cn6)C7)CC5)cc4[nH]3)n[nH]c2C1 (stereo not shown) [Compound 61, 3-(6-(6-((1-(2-(6,6-dimethyl-4,5,6,7-tetrahydro-1H-indazol-3-yl)-1H-indole-6-carbonyl)piperidin-4-yl)methyl)-2,6-diazaspiro[3.4]octan-2-yl)pyridin-3-yl)piperidine-2,6-dione]
